Measured values published in patent publication US20030158255A1, “Use of bismuth subgallate in prevention and/or reduction of skin deterioration” (priority 2002, published 2003).

Test system: keratinocyte cells
Assay: Proliferation of keratinocyte (cell count)
Format: cell-based
Details: for effect on proliferation of keratinocyte: cell count after 2-12 days of cultivation, FIG. 1
Protocol: The keratinocyte cells were respectively cultivated with the following groups of agents: (a) 0.7 μg/1 ml, 7 μg/ml, 70 μg/ml and 700 μg/ml of bismuth subgallate; (b) 0.1 μg/ml, 1 μg/ml, 10 μg/ml and […]; and (c) 0.7 μg/ml bismuth subgallate in combination with 0.1 μg/ml borneol, 7 μg/ml bismuth subgallate in combination with 1 μg/ml borneol, 70 μg/ml bismuth subgallate in combination with 10 μg/ml borneol and 700 μg/ml bismuth subgallate in combination with 100 μg/ml borneol. After the cells were cultivated after 2, 4, 6, 8, 10 and 12 days respectively, their count was noted to evaluate the proliferation of them.

| Molecule | effect on proliferation of keratinocyte | keratinocyte cell number relative to control (70 μg/ml bismuth subgallate, twelfth day) |
| --- | --- | --- |
| CC1(C)C2CCC1(C)C(O)C2 (stereo not drawn) [borneol] | no significant effect | – |
| bismuth subgallate | significant increase in the proliferation of keratinocyte | up to two times of that of control |
